Assay results published in patent US7919671B2, “Method for testing a compound for a therapeutic effect and a diagnostic method” (Chempath Oy, priority 2004, dated 2011).

molecular target: T1, human PAP (Homo sapiens, UniProt P15309); assay: protein overlay assay of PAP binding to immobilized phospholipids (PIP Strips); details: 100 pmole lipid per spot on nitrocellulose strip; 10 μg/ml or 50 μg/ml human PAP, overnight at +4° C.
T1 sequence (P15309 33-386): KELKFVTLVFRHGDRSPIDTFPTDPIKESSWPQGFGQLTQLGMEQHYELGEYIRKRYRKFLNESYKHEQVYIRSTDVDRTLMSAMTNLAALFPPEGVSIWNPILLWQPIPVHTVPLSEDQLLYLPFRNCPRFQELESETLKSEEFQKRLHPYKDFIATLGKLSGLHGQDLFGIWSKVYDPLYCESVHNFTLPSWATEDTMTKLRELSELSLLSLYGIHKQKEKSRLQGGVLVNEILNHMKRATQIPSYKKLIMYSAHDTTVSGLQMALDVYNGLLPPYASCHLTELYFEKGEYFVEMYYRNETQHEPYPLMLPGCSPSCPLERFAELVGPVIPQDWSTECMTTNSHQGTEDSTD
Protocol: (D) The phospholipid binding properties of PAP. Nitrocellulose-immobilized phospholipids at 100 pmole per spot. The lipids, indicated by dashed circles, are: 1. lysophosphatidic acid, 2. lysophosphocholine, 3. PI; 4. PI(3)P; 5. PI(4)P; 6. PI(5)P; 7. phosphatidyletanolamine; 8. phosphatidylcholine; 9. spingosine-1-phosphate; 10. PI(3,4)P2; 11. PI(3,5)P2; 12. PI(4,5)P2; 13. PI(3,4,5)P3; 14. phosphatidic acid; 15. phosphatidylserine; 16. blank. The strip was incubated with human PAP at concentration 10 μg/ml.
The interaction between PAP and PI lipids was investigated using protein overlay assay.
The binding of human PAP to phospholipids was screened using PIP Strips™ (Echelon Bioscience). 100 pmole of lysophosphatidic acid, lysophosphocholine, PI, PI(3)P, PI(4)P, PI(5)P, phosphatidyletanolamine, phosphatidylcholine, sphingosine-1-phosphate, PI(3,4)P2, PI(3,5)P2, PI(4,5)P2, PI(3,4,5)P3, phosphatidic acid, and phosphatidylserine was immobilized on a nitrocellulose strip. The strip was incubated with 10 μg/ml or 50 μg/ml human PAP in 4% non-fat dry milk (Valio) in TBS-T overnight at +4° C. The bound PAP was detected using polyclonal PAP antibody produced by us (Vihko et al., 1978, Clin. Chem. 24, 1915-1919), alkalinephosphatase conjugated secondary antibody (Sigma), and the NBT/BCIP color reaction assay (Promega).

Row | Molecule | binding of PAP to the lipid
1 | CCCCCCCCCCCCCCCC(=O)OC[C@H](COP(=O)(O)O[C@@H]1[C@H](O)[C@H](OP(=O)(O)O)[C@@H](O)[C@H](O)[C@H]1O)OC(=O)CCCCCCCCCCCCCCC [PI(3)P, phosphatidylinositol 3-phosphate] | binds strongly
2 | CCCCCCCCCCCCC/C=C/[C@@H](O)[C@@H](N)COP(=O)(O)O [sphingosine-1-phosphate] | no affinity
3 | PI(3,4)P2 | no affinity
4 | PI(3,4,5)P3 | no affinity
5 | PI(3,5)P2 | no affinity
6 | PI(4,5)P2 | no affinity
7 | PI(5)P | no affinity
8 | Phosphatidylinositol [PI] | no affinity
9 | lysophosphatidic acid | no affinity
10 | lysophosphocholine | no affinity
11 | phosphatidic acid | no affinity
12 | phosphatidylcholine | no affinity
13 | phosphatidylethanolamine | no affinity
14 | phosphatidylinositol 4-phosphate [PI(4)P] | no affinity
15 | phosphatidylserine | no affinity

molecular target: T2, PAP purified from human spermatic fluid (Homo sapiens, UniProt P15309); assay: malachite green assay of the PI(3)P phosphatase activity of PAP; assay type: biochemical; details: 50 mM MES buffer, pH 6.5; 0.25 μg PAP per reaction; 37° C., 2 and 5 min
T2 construct: purified from human spermatic fluid as previously described; from tissue; host or cells: human spermatic (seminal) fluid
T2 sequence (P15309 33-386): T1 sequence (P15309 33-386)
Protocol: (E) PI(3)P phosphatase activity of PAP. Phosphatase assays containing 0.01 μg/μl PAP with varying amounts of PI(3)P or buffer were incubated for 5 min at 37° C. and free phosphate was measured by malachite green assay. Initial velocities were calculated from these time courses and plotted against the respective substrate concentration.
To confirm that PAP hydrolyses PI(3)P the lipid phosphatase activity of PAP towards PI(3)P was studied. […] Being sigmoidal, the kinetic curve was inconsistent with Michaelis-Menten kinetics.
A malachite green assay (BIOMOL GREEN™, BIOMOL Research Laboratories, Inc.) adapted to a 96-well format was used to measure the released free-phosphate from PI(3)P (Echelon Bioscience Inc.). Briefly, the reaction (total volume of 25 μl) containing 50 mM MES buffer, pH 6.5 and an indicated amount of PI(3)P, was initiated by adding the PAP (0.25 μg per reaction) purified from human spermatic fluid as previously described (specific activity of the enzyme 397 μmol min^−1 mg^−1) (Vihko et al. 1978, Clin. Chem. 24, 1915-1919). After incubation at 37° C. for 2 and 5 min the reaction was terminated by adding 100 μl of BIOMOL GREEN reagent. The green color was allowed to develop for 20 min at room temperature and absorbance was measured at 650 nm. The phosphate released was quantified by comparing to inorganic phosphate standards. […]

Row | Molecule | lipid phosphatase activity of PAP towards the lipid (use as a substrate)
16 | CCCCCCCCCCCCCCCC(=O)OC[C@H](COP(=O)(O)O[C@@H]1[C@H](O)[C@H](OP(=O)(O)O)[C@@H](O)[C@H](O)[C@H]1O)OC(=O)CCCCCCCCCCCCCCC [PI(3)P, phosphatidylinositol 3-phosphate] | utilizes PI(3)P as a substrate

same assay, conditions: 50 mM MES buffer, pH 6.5; 37° C.; inconsistent with Michaelis-Menten kinetics

Row | Molecule | shape of the kinetic curve (initial velocity against substrate concentration)
17 | CCCCCCCCCCCCCCCC(=O)OC[C@H](COP(=O)(O)O[C@@H]1[C@H](O)[C@H](OP(=O)(O)O)[C@@H](O)[C@H](O)[C@H]1O)OC(=O)CCCCCCCCCCCCCCC [PI(3)P, phosphatidylinositol 3-phosphate] | sigmoidal
